The source of these data is patent US5015661A, “Chromanes and their pharmaceutical compositions and methods” (Hoffmann-La Roche Inc., priority 1989, dated 1991).

The structures appear in SMILES notation.

For the experiment, the target named is T1, Δ^5 -lipoxygenase from rat basophilic leukemia (RBL-1) cells (Rattus norvegicus, UniProt P12527).
T1 construct: endogenous in cells; host or cells: RBL-1 rat basophilic leukemia cells (ATCC CRL 1378); 113,000×g supernatant (cytosolic fraction)
T1 sequence (P12527 1-673): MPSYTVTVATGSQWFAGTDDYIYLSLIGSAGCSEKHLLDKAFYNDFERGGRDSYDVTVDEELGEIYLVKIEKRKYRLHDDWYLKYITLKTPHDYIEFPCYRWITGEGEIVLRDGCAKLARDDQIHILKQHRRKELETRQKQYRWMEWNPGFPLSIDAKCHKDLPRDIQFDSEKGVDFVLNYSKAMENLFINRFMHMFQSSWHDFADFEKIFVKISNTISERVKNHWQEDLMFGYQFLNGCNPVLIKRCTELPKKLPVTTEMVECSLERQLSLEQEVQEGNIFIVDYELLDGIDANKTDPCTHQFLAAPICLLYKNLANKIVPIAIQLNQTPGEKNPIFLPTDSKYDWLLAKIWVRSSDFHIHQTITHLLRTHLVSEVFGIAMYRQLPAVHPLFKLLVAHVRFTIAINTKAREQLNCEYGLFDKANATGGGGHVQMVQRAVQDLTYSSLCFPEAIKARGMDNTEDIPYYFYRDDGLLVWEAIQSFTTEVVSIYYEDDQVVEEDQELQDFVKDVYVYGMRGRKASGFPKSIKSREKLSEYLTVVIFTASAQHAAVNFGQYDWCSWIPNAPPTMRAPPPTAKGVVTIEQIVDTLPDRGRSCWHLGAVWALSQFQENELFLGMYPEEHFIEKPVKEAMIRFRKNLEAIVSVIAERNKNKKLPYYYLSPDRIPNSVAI
Nature of the experiment: In vitro test for Δ^5 -lipoxygenase inhibitors (5-LO), RBL-1 cell enzyme, 5-HETE radioimmunoassay. Format: biochemical. The conditions noted are these: RBL-1 5-LO; 10 min preincubation; 8.25 μM arachidonic acid, 10 min at 37° C.; 5-HETE formation; read-out: 5-LO IC-50. As for the experimental part: IN VITRO TEST FOR Δ^5 -LIPOXYGENASE INHIBITORS Compounds of formula I of the invention were tested for their effect on Δ^5 -lipoxygenase from rat basophilic leukemia (RBL-1) cells. Materials. RBL-1 cells (CRL 1378) were obtained from the American TYpe Culture Collection, Rockville, MD. DMEM and glutamine were purchased from Flow Labs, McLean, VA. FBS (Gibco, Grand Island, NY) was heat-inactivated for 1 hour at 56° C. Reagents for protein determinations were obtained from Biorad, Rockville Center, NY. Arachidonic acid (approx. 99%), ATP (disodium slat), BHT, dextran (clinical grade), tetrasodium EDTA, gelatin, gentamycin sulfate solution, reduced glutathione, 1 M HEPES buffer, indomethacin, NaCl, reduced NADpH, Trizma 7.2, and Trizma 8.5 were purchased from Sigma Chemical, St. Louis, MO. CaCl2 dihydrate, Norit A charcoal, and citric acid monohydrate were obtained from Fisher Scientific, Pittsburgh, PA. […] MA. A synthetic 5-HETE standard was supplied by Dr. M. Rosenberger, Dept. of Medicinal Chemistry, Hoffmann-La Roche, Nutley, NJ; [see Corey, E.J., and Hashimoto, S. (1981 ) Tet. Letters, 22, 299-302 for method of preparation]. Ecoscint liquid sointillation fluid was purchased from National Diagnostics, Sommerville, NJ. Isolation of 5-lipoxygenase. […] Approximately 7-9 days after thawing, RBL-1 cells growing in log phase were seeded at a density of 7500 viable cells/ml in a closed 89-liter spinner flask. The cells were stirred constantly for 3-4 days at 37° C. until they reached a density greater than 500,000/ml but less than 800,00/ml. RBL-1 cells were harvested by centrifugation at 4° C. at 1500×g for 10 minutes and were washed 3 times with ice cold 0.05 M tris-HCl, pH 7.2, tetrasodium EDTA (buffer 1). The cells were washed last in 0.05 M Tris-HCl containing 14 μM indomethacin, 1 mM glutathione, 1.5 mM NaCl, and 1 mM tetrasodium EDTA (buffer 2), resuspended at a density of 5×108'/ml (approximately 10 ml) and disrupted manually at 4° C. using a 40 ml Dounce (type A pestle) homogenizer. After 5 minutes of homogenization. 95% cell lysis was confirmed by phase contrast microscopy. The broken cells were diluted 1:2 with buffer 2 and centrifuged at 12,380×g for 10 minutes at 4° C. to pellet cellular debris and granules. The 12,380×g supernatant was centrifuged at 113,000×g for 60 minutes to pellet microsomes. The high-speed supernatant (5.9±0.48 mg/ml protein) was frozen immediately in 1 ml aliquots using a dry ice/acetone bath. The isolated cytosolic fraction was stored in liquid N2 for up to 8 weeks without loss of 5-LO enzyme activity. Lipoxygenase Assay. Compounds Were dissolved at 25 mM concentration in DMSO, then diluted to final concentrations using 95% ethanol. For a typical enzyme assay, the partially purified 5-LO preparation was preincubated with drug or vehicle for 10 minutes at 30° C. The assay tubes were then transferred at a 37° C. water bath where they received arachidonic acid (8.25 μM final concentration) to initiate 5-LO activity. In addition to enzyme and substrate, each reaction tube contained: 12.5 μmoles of Tris-HCl (pH 7.2), 25 nmoles glutathione, 0.35 nmoles indomethacin and 1.25 μmoles of CaCl2 and ATP to yield a total of volume of 250 μl. The enzyme reaction was terminated after 10 minutes by the addition of 75μl […] citric acid to yield pH 3.5. The samples were immediately cooled on ice and neutralized by dilution with 0.05 M Tris-HCl, pH 8.5, which contained 25 mg/1 BHT. A boiled cytosol control was placed at the end of each assay to measure non-enzymatic oxidation of arachidonic acid. The mean specific activity of the 5-LO enzyme preparation was approximately 66.16±14.39 pmol 5-HETE/min/mg protein. Radioimmunoassay for 5-HETE. Under the assay conditions described, the 5-LO catalyzed the conversion of arachidonic acid to 5-HPETE which, as a consequence o peroxidase activity, was reduced to 5-HETE. A specific radioimmunoassay was employed to quantitate the amount (pmoles) of 5-HETE formed during the enzyme reaction. […]
For `COc1cccc(C#CC2(C)CCc3c(C)c(O)c(C)c(C)c3O2)c1` (racemic) [Example 22, rac-3,4-Dihydro-2-(3-methoxyphenyl)ethynyl)-2,5,7,8-tetra-methyl-2H-1-benzopyran-6-ol], the IC50 was 170 nM.

For the compound `Cc1c(C)c2c(c(C)c1O)CCC(C)(C#Cc1ccc(OCc3ccccc3)c(O)c1)O2` (racemic) [Example 43, rac-3,4-Dihydro-2-{[3-hydroxy-4-(phenylmethoxY)phenyl]-ethynyl}-2,5,7,8-tetramethyl-2H-1-benzopyran-6-ol], the IC50 came to 24 nM.

As for `CC(=O)Oc1cc(C#CC2(C)CCc3c(C)c(O)c(C)c(C)c3O2)ccc1OCc1ccccc1` (racemic) [Example 41, rac-2-{[3-Acetyloxy-4-(phenylmethoxy)phenyl]ethynyl}-3,4-dihydro-2,5,7,8-tetramethyl-2H-1-benzopyran-6-ol], the IC50 came to 32 nM.

Turning to `Cc1c(C)c2c(c(C)c1O)CCC(C)(C#Cc1ccc(-c3cccnc3)cc1)O2` (racemic) [Example 24, rac-3,4-Dihydro-2,5,7,8-tetramethyl-2-{[4-(3-pyridinyl)-phenyl]ethynyl}-2H-1-benzopyran-6-ol], the IC50 is 160 nM.

In the case of `Cc1c(C)c2c(c(C)c1O)CCC(C)(C#Cc1cnc3ccccc3c1)O2` (racemic) [Example 33, rac-3,4-Dihydro-2,5,7,8-tetramethyl-2-(3-quinolinylethynyl)-2H-1-benzopyran-6-ol], the IC50 is 160 nM.

As for `Cc1c(C)c2c(c(C)c1O)CCC(C)(c1cc3ccccc3o1)O2` (racemic) [Example 50 (CH; H, H, H), rac-2-(2-Benzofuranyl)-3,4-dihydro-2,5,7,8-tetramethyl-2H-1-benzopyran-6-ol], the IC50 stood at 12 nM.

On to `Cc1c(C)c2c(c(C)c1O)CCC(C)(C#Cc1cccc(C(F)(F)F)c1)O2` (racemic) [Example 35, rac-2-{[3-(Trifluoromethyl)phenyl]ethynyl-3,4-dihydro-2,5,7,8-tetramethyl-2H-1-benzopyran-6-ol], for which the IC50 turned out to be 190 nM.

In the case of `Cc1c(C)c2c(c(C)c1O)CC[C@](C)(C#Cc1cccs1)O2` [Example 5, (R)-3,4-Dihydro-2,5,7,8-tetramethyl-2-[(2-thienyl)ethynyl]-2H-1-benzopvran-6-ol], the IC50 came to 15 nM.

`COc1cc(CO)cc(C#CC2(C)CCc3c(C)c(O)c(C)c(C)c3O2)c1O` (racemic) [Example 29, rac-3-[(3,4-Dihydro-6-hydroxy-2,5,7,8-tetramethyl-2H-1-benzopyran-2-yl)ethynyl]-4-hydroxy-5-methoxybenzenemethanol]: the IC50 came out at 130 nM.

For `Cc1ccc2oc(C3(C)CCc4c(C)c(O)c(C)c(C)c4O3)cc2n1` (racemic) [Example 51, rac-3,4-Dihydro-2-(5-methylfuro[3,2[b]pyridin-2-yl)-2,5,7,8-tetramethyl-2H-1-benzopyran-6ol], the IC50 stood at 3 nM.

Turning to `COc1ccc(C#CC2(C)CCc3c(C)c(O)c(C)c(C)c3O2)cc1OC(C)=O` (racemic) [Example 20, rac-2-[(3-Acetyloxy-4-methoxyphenyl)ethynyl]-3.4-dihydro-2,5,7,8-tetramethyl-2H-1-benzopyran-6-ol], the IC50 came out at 24 nM.

For `CCCc1c(O)c(C(C)=O)cc2cc(C3(C)CCc4c(C)c(O)c(C)c(C)c4O3)oc12` (racemic) [Example 53, rac-1-2-(3,4-Dihydro-6-hydroxy-2,5,7,8-tetramethyl-2H-1-benzopyran-2-yl)-6-hydroxy-7-propylbenzofuran-5-yl]ethanone], the IC50 was 17 nM.

Take `Cc1c(C)c2c(c(C)c1O)CC[C@@](C)(C#Cc1cccs1)O2` [Example 13, (S)-3,4-Dihydro-2,5,7,8-tetramethyl-2-[(2-thienyl)ethynyl]-2H-1-benzopyran-6-ol]: the IC50 came to 17 nM.

In the case of `Cc1c(C)c2c(c(C)c1O)CCC(C)(C#Cc1ccc(-c3ccccn3)s1)O2` (racemic) [Example 26, rac-3,4-Dihydro-2,5,7,8-tetramethyl-2-{[5-(2-pyridinyl)-2-thienyl]ethynyl}-2H-1-benzopyran-6-ol], the IC50 is 160 nM.

For the compound `Cc1c(C)c2c(c(C)c1O)CCC(C)(C#Cc1cccnc1)O2` (racemic) [Example 14, rac-3,4-Dihydro-2,5,7,8-tetramethyl-2-[(3-pyridinyl)ethynyl]-2H-1-benzopyran-6-ol], the IC50 came to 40 nM.

On to `Cc1c(C)c2c(c(C)c1O)CCC(C)(CCc1cccs1)O2` (racemic) [Example 57, rac-3,4-Dihydro-2,5,7,8-tetramethyl-2-[2-(2-thienyl)ethyl]-2H-1-benzo-pyran-6-ol], for which the IC50 was 50 nM.

Consider `Cc1c(C)c2c(c(C)c1O)CCC(C)(C#Cc1ccccc1N)O2` (racemic) [Example 40, rac-2-[(2-Aminophenyl)ethynyl]-3,4-dihydro-2,5,7,8-tetramethyl-2H-1-benzopyran-6-ol], for which the IC50 turned out to be 20 nM.

With `CCCCc1ccc(CCC2(C)CCc3c(C)c(O)c(C)c(C)c3O2)s1` (racemic) [Example 66, rac-2-[2-(5-Butyl-2-thienyl)ethyl]-3,4-dihydro-2,5,7,8-tetramethyl-2H-1-benzopyran-6-ol], the IC50 amounted to 140 nM.

In the case of `Cc1c(C)c2c(c(C)c1O)CCC(C)(C#Cc1ccccc1O)O2` (racemic) [Example 50 (2-HO-phenyl), rac-3,4-Dihydro-2-[(2-hydroxyphenyl)ethynyl]-2,5,7,8-tetramethyl-2H-1-benzopyran-6-ol], the IC50 is 6 nM.

For `Cc1c(C)c2c(c(C)c1O)CCC(C)(c1cc3ncccc3o1)O2` (racemic) [Example 52, rac-3,4-Dihydro-2-(furo[3,2-b]pyridine-2-yl)-2,5,7,8-tetramethyl-2H-1-benzopyran-6-ol], the IC50 stood at 18 nM.

As to `CCCCc1ccc(C#CC2(C)CCc3c(C)c(O)c(C)c(C)c3O2)s1` (racemic) [Example 31, rac-2-[(5-Butyl-2-thienyl)ethynyl]-3,4-dihydro-2,5,7,8-tetramethyl-2H-1-benzopyran-6-ol], the IC50 was determined as 1000 nM.

As to `COC(=O)c1cc(C#CC2(C)CCc3c(C)c(O)c(C)c(C)c3O2)ccc1O` (racemic) [Example 23, rac-5-(3,4-Dihydro-6-hydroxy-2,5,7,8-tetramethyl-2H-1-benzopyran-2-yl)ethynyl]-2-hydroxybenzoic acid methyl ester], the IC50 is 160 nM.
